In patent publication US20020169111A1, “Reversal of multidrug resistance in human colon carcinoma cells” (American Cyanamid Comany, priority 1998, published 2002):
Where two headings read alike, the source gives them in different places.

What was measured:
S1-M1-3.2 cells [1] = conditions: for concentration giving 40% cell death (compound alone) / activity in the reversal assay compared to FTC, fold lower / Per Cent Survival with 3.2 μM mitoxantrone / Per Cent Survival Alone / Difference Score: S1-M1-3.2 cells; for activity in the reversal assay compared to FTC, fold lower: Table 7 versus Table 8; for Per Cent Survival Alone: 3 days; for Difference Score: survival alone minus survival with 3.2 μM mitoxantrone; for Toxicity (>20%): compound alone, concentration that causes greater than 20% cell death of S1-M1-3.2 cells; for IC50: read-out: IC50 (μM), resensitizing S1-M1-3.2 cells to mitoxantrone, with 3.2 μM mitoxantrone, 50% cancer cell death
Method: One of the first reported molecules with reversing activity was verapamil, a calcium channel blocker. […] Cells were plated into 96-well dishes (100 μl/well) in growth medium supplemented with 5% FBS. […] Reversal agents were tested from 0.1-80 μM (triplicate points per dose). In parallel wells, cells were grown in the presence of the reversal agent alone.
The Difference Score is the difference in the percentage of cells surviving when the drug was given alone minus the percentage of cells surviving when the drug was given along with the antitumor agent.
Cell survival was estimated using the Sulforhodamine (SRB) assay.

S1-M1-3.2 cells [2] = assay: Cytotoxicity of antitumor agents, 3-day SRB assay, mitoxantrone-selected cells; format: cell-based, human; conditions: relative to S1; 2-7 independent experiments
Method: Cells were cultured for three days in the presence of the antitumor agent (triplicate points per dose). Following a 3-day growth period, cells were fixed in 10% trichloroacetic acid (TCA) for 1 hour, washed extensively with water, and cell-associated protein was stained using 0.1% sulforhodamine B (SRB), a protein binding reagent [Rubinstein et al., Journal of the National Cancer Institute 82, 1113-1118 (1990) and Skehan et al., Journal of the National Cancer Institute 82, 1107-1112 (1990)]. Excess reagent was removed by washing plates in 5% acetic acid, the dye was solubilized in 10 mM Tris base, and absorbance determined in a UV Max spectrophotometer (Molecular Devices, Menlo Park, Calif.) at 540 nm. Cell survival was estimated relative to control wells (no drugs). EC50 values (μM) were estimated from cytotoxicity curves. For S1, the values shown [mean ±SE (number of independent observations)] are taken from Zhang et al., “P-Glycoprotein Mediates Profound Resistance to Bisantrene,” Oncol. Res., 6:291-301, 1994. Values for S1-M1-3.2 are compiled from 2-7 independent experiments.

Compound	Per Cent Survival with 3.2 μM mitoxantrone (S1-M1-3.2 cells [1]; drug 0.1 μM) [Per Cent]	Per Cent Survival Alone (S1-M1-3.2 cells [1]; drug 0.1 μM alone) [Per Cent]	Per Cent Survival with 3.2 μM mitoxantrone (S1-M1-3.2 cells [1]; drug 0.5 μM) [Per Cent]	Per Cent Survival Alone (S1-M1-3.2 cells [1]; drug 0.5 μM alone) [Per Cent]	Per Cent Survival with 3.2 μM mitoxantrone (S1-M1-3.2 cells [1]; drug 1 μM) [Per Cent]	Per Cent Survival Alone (S1-M1-3.2 cells [1]; drug 1 μM alone) [Per Cent]	Per Cent Survival with 3.2 μM mitoxantrone (S1-M1-3.2 cells [1]; drug 5 μM) [Per Cent]	Per Cent Survival Alone (S1-M1-3.2 cells [1]; drug 5 μM alone) [Per Cent]	Per Cent Survival with 3.2 μM mitoxantrone (S1-M1-3.2 cells [1]; drug 10 μM) [Per Cent]	Per Cent Survival Alone (S1-M1-3.2 cells [1]; drug 10 μM alone) [Per Cent]	Per Cent Survival with 3.2 μM mitoxantrone (S1-M1-3.2 cells [1]; drug 20 μM) [Per Cent]	Per Cent Survival Alone (S1-M1-3.2 cells [1]; drug 20 μM alone) [Per Cent]	Per Cent Survival with 3.2 μM mitoxantrone (S1-M1-3.2 cells [1]; drug 40 μM) [Per Cent]	Per Cent Survival Alone (S1-M1-3.2 cells [1]; drug 40 μM alone) [Per Cent]	Per Cent Survival with 3.2 μM mitoxantrone (S1-M1-3.2 cells [1]; drug 80 μM) [Per Cent]	Per Cent Survival Alone (S1-M1-3.2 cells [1]; drug 80 μM alone) [Per Cent]	S1-M1-3.2 (relative resistance) (S1-M1-3.2 cells [2])	further results
COc1ccc2c3c4n(c2c1)[C@@H](C=C(C)C)OOC(C)(C)C[C@@H]4N1C(=O)[C@@H]2CCCN2C(=O)[C@]1(O)[C@H]3OCC=C(C)C [Fumitremorgin A]	96 ± 2	95 ± 1	95 ± 4	96 ± 2	94 ± 5	96 ± 1	64 ± 4	96 ± 1	40 ± 6	89 ± 9	35 ± 5	59 ± 4	34 ± 4	50 ± 8	34 ± 4	41 ± 8		concentration giving 40% cell death (compound alone) (S1-M1-3.2 cells [1]): 20 µM; activity in the reversal assay compared to FTC, fold lower (S1-M1-3.2 cells [1]): 20 fold; Difference Score (S1-M1-3.2 cells [1]; drug 0.1 μM): −1; Difference Score (S1-M1-3.2 cells [1]; drug 0.5 μM): 1; Difference Score (S1-M1-3.2 cells [1]; drug 1 μM): 2; Difference Score (S1-M1-3.2 cells [1]; drug 5 μM): 32; Difference Score (S1-M1-3.2 cells [1]; drug 10 μM): 49; Difference Score (S1-M1-3.2 cells [1]; drug 20 μM): 24; Difference Score (S1-M1-3.2 cells [1]; drug 40 μM): 16; Difference Score (S1-M1-3.2 cells [1]; drug 80 μM): 7; Toxicity (>20%) (S1-M1-3.2 cells [1]): 15.0 µM; IC50 (S1-M1-3.2 cells [1]): 7 µM
COc1ccc2c3c(n(CC=C(C)C)c2c1)[C@H](C=C(C)C)N1C(=O)[C@@H]2CCCN2C(=O)[C@]1(O)[C@H]3O [Fumitremorgin B]	91 ± 5	94 ± 1	90 ± 3	95 ± 2	87 ± 1	93 ± 0	51 ± 4	90 ± 2	35 ± 1	91 ± 4	29 ± 1	59 ± 10	20 ± 2	41 ± 7	10 ± 1	16 ± 2		concentration giving 40% cell death (compound alone) (S1-M1-3.2 cells [1]): 20 µM; activity in the reversal assay compared to FTC, fold lower (S1-M1-3.2 cells [1]): 14 fold; Difference Score (S1-M1-3.2 cells [1]; drug 0.1 μM): 3; Difference Score (S1-M1-3.2 cells [1]; drug 0.5 μM): 5; Difference Score (S1-M1-3.2 cells [1]; drug 1 μM): 6; Difference Score (S1-M1-3.2 cells [1]; drug 5 μM): 39; Difference Score (S1-M1-3.2 cells [1]; drug 10 μM): 56; Difference Score (S1-M1-3.2 cells [1]; drug 20 μM): 30; Difference Score (S1-M1-3.2 cells [1]; drug 40 μM): 21; Difference Score (S1-M1-3.2 cells [1]; drug 80 μM): 6; Toxicity (>20%) (S1-M1-3.2 cells [1]): 15.0 µM; IC50 (S1-M1-3.2 cells [1]): 5 µM
COc1cc([C@@H]2c3cc4c(cc3[C@@H](O[C@@H]3O[C@@H]5CO[C@@H](c6cccs6)O[C@H]5[C@H](O)[C@H]3O)[C@H]3COC(=O)[C@H]23)OCO4)cc(OC)c1O [VM-26, teniposide]																	18	
COc1ccc(CCN(C)CCCC(C#N)(c2ccc(OC)c(OC)c2)C(C)C)cc1OC (stereo not drawn) [Verapamil, reference compound]	98 ± 0	100 ± 1	98 ± 1	99 ± 1	98 ± 1	97 ± 2	97 ± 0	98 ± 5	94 ± 0	103 ± 4	93 ± 2	99 ± 4	83 ± 3	93 ± 6	58 ± 4	80 ± 24		reversal activity in S1-M1-3.2 cells (in words) (S1-M1-3.2 cells [1]): not reversed
C(=N\NC1=NCCN1)/c1c2ccccc2c(/C=N/NC2=NCCN2)c2ccccc12 [bisantrene]																	24	
COc1cc([C@@H]2c3cc4c(cc3[C@@H](O[C@@H]3O[C@@H]5CO[C@@H](C)O[C@H]5[C@H](O)[C@H]3O)[C@H]3COC(=O)[C@H]23)OCO4)cc(OC)c1O [etoposide]																	6	
COc1cc(NS(C)(=O)=O)ccc1Nc1c2ccccc2nc2ccccc12 [m-AMSA]																	11	
CC[C@]1(O)C[C@@H]2CN(CCc3c([nH]c4ccccc34)[C@@](C(=O)OC)(c3cc4c(cc3OC)N(C)[C@H]3[C@@](O)(C(=O)OC)[C@H](OC(C)=O)[C@]5(CC)C=CCN6CC[C@]43[C@@H]65)C2)C1 [vinblastine]																	3	
